We go through 7 compounds from ChEMBL document CHEMBL1151852, “Tetranortriterpenoids from the Leaves of Cipadessa cinerascens” (2009).

The test system of this experiment is P388. In words: Cytotoxicity against mouse P388 cells after 72 hrs by MTT assay. It counts as functional. To be noted: P388, 72 h, read-out: ED50 (the source's name).

As for `C=C1[C@]2(O)C(=O)C[C@@]3(C)[C@H](c4ccoc4)OC(=O)C[C@]13O[C@H]1C[C@@H](OC(C)=O)C(C)(C)[C@H](CC(=O)OC)[C@]12C` [CINERACIPADESIN C], the EC50 is > 5 µg/mL.
The figure for `C=C1[C@@H]2[C@H](OC(C)=O)C[C@@]3(C)[C@H](c4ccoc4)OC(=O)C[C@]13O[C@H]1C[C@@H](OC(C)=O)C(C)(C)[C@H](CC(=O)OC)[C@]12C` [CINERACIPADESIN D] is > 5 µg/mL.
With `C=C1[C@]2(OC(C)=O)C[C@@]3(C)[C@H](c4ccoc4)OC(=O)C[C@]13O[C@H]1[C@@H](OC(C)=O)[C@@H](OC(C)=O)C(C)(C)[C@H](CC(=O)OC)[C@@]1(C)C2=O` [CINERACIPADESIN F] the figure was > 5 µg/mL.
With `C=C1[C@@H]2[C@H](OC(C)=O)C[C@@]3(C)[C@H](c4ccoc4)OC(=O)C[C@]13O[C@H]1[C@@H](OC(C)=O)[C@@H](OC(C)=O)C(C)(C)[C@H](CC(=O)OC)[C@@]21C` [CINERACIPADESIN E] the figure was > 5 µg/mL.
For `C=C1[C@@]23CC(=O)O[C@@H](c4ccoc4)[C@]2(C)C[C@@H](O)[C@]1(O)[C@@]1(C)[C@@H](O3)[C@@H](OC(C)=O)[C@@H](OC(C)=O)C(C)(C)[C@@H]1CC(=O)OC` [CINERACIPADESIN B], the EC50 was > 5 µg/mL.
Take `C=C1[C@@H]2CC[C@@]3(C)[C@H](c4ccoc4)OC(=O)C[C@]13O[C@H]1[C@H](OC(C)=O)[C@H](OC(C)=O)C(C)(C)[C@H](CC(=O)OC)[C@@]21C`: the EC50 was > 5 µg/mL.
With `CC[C@@H](C)C(=O)O[C@@H]1[C@H]2C(=O)[C@@](C)([C@@H](CC(=O)OC)C1(C)C)[C@@]13O[C@@H]1C[C@@]1(C)[C@H](c4ccoc4)OC(=O)C[C@@H]1[C@]31O[C@H]21` [CINERACIPADESIN A] the figure was > 5 µg/mL.
